Results reported in patent US12195439B1, “C1-substituted isopropylamine fused heterocyclic mescaline derivatives” (Enveric Biosciences Canada Inc., priority 2022, dated 2025).

How the values were obtained:
5-HT1A receptor [1] = biological target: T1, 5-HT1A receptor (Homo sapiens, UniProt P08908); assay: 5-HT1A receptor radioligand competition assay (SPA); assay type: binding; conditions: 5-HT1A, Ki, competition with 0.5 nM [3H]8-hydroxy-DPAT, membranes containing 5-HT1A
T1 construct: purchased Perkin Elmer 6110501400UA
T1 sequence (P08908 1-422): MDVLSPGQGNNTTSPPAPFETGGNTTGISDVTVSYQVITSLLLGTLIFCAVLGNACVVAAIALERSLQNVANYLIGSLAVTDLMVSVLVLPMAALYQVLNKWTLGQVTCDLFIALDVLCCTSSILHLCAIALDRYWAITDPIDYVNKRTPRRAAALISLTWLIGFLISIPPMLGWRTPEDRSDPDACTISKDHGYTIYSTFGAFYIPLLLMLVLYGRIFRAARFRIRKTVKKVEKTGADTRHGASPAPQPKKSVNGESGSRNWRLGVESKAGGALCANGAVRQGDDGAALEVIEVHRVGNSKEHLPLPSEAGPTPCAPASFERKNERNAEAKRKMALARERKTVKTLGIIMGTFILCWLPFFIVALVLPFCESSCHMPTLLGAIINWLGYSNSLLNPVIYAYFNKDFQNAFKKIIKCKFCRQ

5-HT2A receptor = biological target: T2, 5-HT2A receptor (Homo sapiens, UniProt P28223); assay: biochemical; assay type: binding; conditions: competition with 1 nM [3H]ketanserin, membranes containing 5-HT2A, SPA
T2 construct: purchased PerkinElmer ES-313-M400UA

5-HT1A receptor [2] = biological target: T1, 5-HT1A receptor; assay: 5-HT1A receptor functional cellular response (cAMP) assay; assay type: cell-based
5-HT1A receptor [3] = biological target: T1, 5-HT1A receptor; assay: Eurofins Cerep competition binding assay at 5-HT1A receptor; conditions: 10 μM test ligand, [3H]8-OH-DPAT, recombinant receptor from HEK-293 cells; read-out: HT1A, percent of control-specific binding
5-HT2B receptor = biological target: T3, 5-HT2B receptor (Homo sapiens, UniProt P41595); assay: Eurofins Cerep competition binding assay at 5-HT2B receptor; conditions: 10 μM test ligand, [3H]mesulergine, recombinant receptor from CHO cells; read-out: HT2B, percent of control-specific binding
T3 construct: host or cells: CHO cells (membrane preparation)

5-HT2C receptor = biological target: T4, 5-HT2C receptor (Homo sapiens, UniProt P28335); assay: Eurofins Cerep competition binding assay at 5-HT2C receptor; conditions: 10 μM test ligand, [125I](±)DOI, recombinant receptor from HEK-293 cells; read-out: HT2C, percent of control-specific binding
T4 construct: host or cells: HEK-293 cells (membrane preparation)
T4 sequence (P28335 33-458): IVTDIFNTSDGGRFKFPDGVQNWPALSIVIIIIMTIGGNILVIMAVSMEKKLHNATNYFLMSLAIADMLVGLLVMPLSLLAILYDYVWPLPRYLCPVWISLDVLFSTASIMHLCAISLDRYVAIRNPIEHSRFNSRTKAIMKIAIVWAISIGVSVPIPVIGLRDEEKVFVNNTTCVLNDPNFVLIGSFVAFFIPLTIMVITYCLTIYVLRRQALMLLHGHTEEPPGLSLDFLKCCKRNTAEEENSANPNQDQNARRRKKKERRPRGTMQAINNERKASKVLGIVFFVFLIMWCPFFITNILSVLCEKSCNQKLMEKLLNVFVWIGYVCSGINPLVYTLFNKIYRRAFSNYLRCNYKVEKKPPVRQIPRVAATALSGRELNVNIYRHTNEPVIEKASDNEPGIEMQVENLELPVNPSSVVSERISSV

5-HT7 receptor = biological target: T5, 5-HT7 receptor (Homo sapiens, UniProt P34969); assay: Eurofins Cerep competition binding assay at 5-HT7 receptor; conditions: 10 μM test ligand, [3H]LSD, recombinant receptor from HEK-293 cells; read-out: HT7, percent of control-specific binding
T5 construct: host or cells: HEK-293 cells (membrane preparation)

alpha2A receptor = biological target: T6, alpha2A receptor (Homo sapiens, UniProt P08913); assay: Eurofins Cerep competition binding assay at alpha2A receptor; conditions: 10 μM test ligand, [3H]RX 821002, recombinant receptor from CHO cells; read-out: α-2A, percent of control-specific binding
T6 construct: host or cells: CHO cells (membrane preparation)
T6 sequence (P08913 1-465): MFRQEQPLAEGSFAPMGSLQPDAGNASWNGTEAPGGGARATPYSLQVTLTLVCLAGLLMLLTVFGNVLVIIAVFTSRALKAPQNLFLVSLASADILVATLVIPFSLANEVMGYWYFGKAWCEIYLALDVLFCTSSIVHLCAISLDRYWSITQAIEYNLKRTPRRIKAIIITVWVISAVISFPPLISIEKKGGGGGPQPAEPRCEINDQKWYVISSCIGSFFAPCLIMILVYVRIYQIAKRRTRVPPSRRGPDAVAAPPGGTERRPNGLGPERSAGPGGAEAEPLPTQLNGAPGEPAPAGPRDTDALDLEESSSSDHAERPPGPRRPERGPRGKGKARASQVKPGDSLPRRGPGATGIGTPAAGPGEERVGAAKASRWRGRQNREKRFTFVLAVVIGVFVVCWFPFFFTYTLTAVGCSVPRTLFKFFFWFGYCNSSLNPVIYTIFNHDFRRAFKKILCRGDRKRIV

[4] = biological target: T7, serotonin transporter (SERT) (Homo sapiens, UniProt P31645); assay: biochemical; assay type: binding; conditions: read-out: SERT, percent of control-specific binding
T7 construct: host or cells: CHO cells (membrane preparation)

[5] = biological target: T8, dopamine transporter (DAT) (Homo sapiens, UniProt Q01959); assay: Eurofins Cerep competition binding assay at dopamine transporter; conditions: read-out: DAT, percent of control-specific binding, 10 μM test ligand, [3H]BTCP, recombinant transporter from CHO cells
T8 construct: host or cells: CHO cells (membrane preparation)

MT1 receptor = biological target: T9, MT1 receptor (Homo sapiens, UniProt P48039); assay: Eurofins Cerep competition binding assay at MT1 receptor; conditions: read-out: MT1, percent of control-specific binding, 10 μM test ligand, [125I]2-iodomelatonin, recombinant receptor from CHO cells
T9 construct: host or cells: CHO cells (membrane preparation)

[6] = biological target: T10, norepinephrine transporter (NET) (Homo sapiens, UniProt P23975); assay: Eurofins Cerep competition binding assay at norepinephrine transporter; conditions: read-out: NET, percent of control-specific binding, 10 μM test ligand, [3H]nisoxetine, recombinant transporter from CHO cells
T10 construct: host or cells: CHO cells (membrane preparation)
T10 sequence (P23975 whole entry): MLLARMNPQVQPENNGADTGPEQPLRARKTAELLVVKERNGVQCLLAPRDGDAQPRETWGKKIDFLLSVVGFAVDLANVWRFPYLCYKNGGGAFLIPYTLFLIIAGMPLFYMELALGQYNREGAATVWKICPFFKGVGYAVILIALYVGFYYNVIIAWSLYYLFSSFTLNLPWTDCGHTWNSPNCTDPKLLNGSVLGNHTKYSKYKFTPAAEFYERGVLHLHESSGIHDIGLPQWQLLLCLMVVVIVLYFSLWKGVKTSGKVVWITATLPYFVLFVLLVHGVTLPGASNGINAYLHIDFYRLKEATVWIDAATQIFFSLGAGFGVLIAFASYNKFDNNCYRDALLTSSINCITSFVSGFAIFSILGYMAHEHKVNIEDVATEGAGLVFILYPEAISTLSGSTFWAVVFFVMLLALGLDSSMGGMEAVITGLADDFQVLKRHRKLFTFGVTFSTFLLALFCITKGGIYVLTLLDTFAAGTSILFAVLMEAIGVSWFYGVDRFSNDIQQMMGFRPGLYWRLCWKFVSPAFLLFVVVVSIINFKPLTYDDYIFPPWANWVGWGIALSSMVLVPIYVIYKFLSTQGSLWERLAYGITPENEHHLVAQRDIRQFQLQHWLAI

T2 sequence (P28223 whole entry): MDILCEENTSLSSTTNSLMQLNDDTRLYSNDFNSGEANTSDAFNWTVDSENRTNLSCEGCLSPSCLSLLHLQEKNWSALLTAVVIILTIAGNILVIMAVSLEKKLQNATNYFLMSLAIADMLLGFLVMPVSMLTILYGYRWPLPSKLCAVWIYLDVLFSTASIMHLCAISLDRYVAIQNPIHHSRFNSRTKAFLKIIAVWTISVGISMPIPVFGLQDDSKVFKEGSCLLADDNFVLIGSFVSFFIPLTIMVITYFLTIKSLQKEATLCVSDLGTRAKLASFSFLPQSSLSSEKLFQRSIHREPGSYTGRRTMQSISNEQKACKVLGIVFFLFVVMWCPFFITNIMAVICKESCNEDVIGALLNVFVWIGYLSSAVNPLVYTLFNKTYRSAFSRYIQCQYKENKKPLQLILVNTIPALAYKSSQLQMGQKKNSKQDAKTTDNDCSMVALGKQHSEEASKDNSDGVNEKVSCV
T9 sequence (P48039 whole entry): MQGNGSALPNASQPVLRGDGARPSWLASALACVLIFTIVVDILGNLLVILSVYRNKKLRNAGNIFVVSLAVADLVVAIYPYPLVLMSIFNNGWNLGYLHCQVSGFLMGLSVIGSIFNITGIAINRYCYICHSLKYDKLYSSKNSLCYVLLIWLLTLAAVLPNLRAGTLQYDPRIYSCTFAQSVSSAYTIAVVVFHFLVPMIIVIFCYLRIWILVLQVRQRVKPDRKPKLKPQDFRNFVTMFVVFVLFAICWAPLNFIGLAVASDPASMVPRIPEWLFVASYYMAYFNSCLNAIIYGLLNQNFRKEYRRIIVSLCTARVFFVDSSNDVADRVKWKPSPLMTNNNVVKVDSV
T5 sequence (P34969 whole entry): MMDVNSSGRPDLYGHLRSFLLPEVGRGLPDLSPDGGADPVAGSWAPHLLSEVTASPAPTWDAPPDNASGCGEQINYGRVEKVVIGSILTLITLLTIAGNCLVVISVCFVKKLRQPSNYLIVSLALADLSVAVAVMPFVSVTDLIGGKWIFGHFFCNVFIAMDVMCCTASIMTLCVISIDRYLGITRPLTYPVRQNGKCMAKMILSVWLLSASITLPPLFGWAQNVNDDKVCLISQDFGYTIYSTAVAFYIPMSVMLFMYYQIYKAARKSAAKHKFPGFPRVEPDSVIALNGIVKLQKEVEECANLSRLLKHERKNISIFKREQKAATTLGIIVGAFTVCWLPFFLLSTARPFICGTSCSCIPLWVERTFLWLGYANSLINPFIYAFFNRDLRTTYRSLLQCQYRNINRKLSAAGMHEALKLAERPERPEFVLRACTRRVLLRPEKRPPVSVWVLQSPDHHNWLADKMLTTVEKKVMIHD
T8 sequence (Q01959 whole entry): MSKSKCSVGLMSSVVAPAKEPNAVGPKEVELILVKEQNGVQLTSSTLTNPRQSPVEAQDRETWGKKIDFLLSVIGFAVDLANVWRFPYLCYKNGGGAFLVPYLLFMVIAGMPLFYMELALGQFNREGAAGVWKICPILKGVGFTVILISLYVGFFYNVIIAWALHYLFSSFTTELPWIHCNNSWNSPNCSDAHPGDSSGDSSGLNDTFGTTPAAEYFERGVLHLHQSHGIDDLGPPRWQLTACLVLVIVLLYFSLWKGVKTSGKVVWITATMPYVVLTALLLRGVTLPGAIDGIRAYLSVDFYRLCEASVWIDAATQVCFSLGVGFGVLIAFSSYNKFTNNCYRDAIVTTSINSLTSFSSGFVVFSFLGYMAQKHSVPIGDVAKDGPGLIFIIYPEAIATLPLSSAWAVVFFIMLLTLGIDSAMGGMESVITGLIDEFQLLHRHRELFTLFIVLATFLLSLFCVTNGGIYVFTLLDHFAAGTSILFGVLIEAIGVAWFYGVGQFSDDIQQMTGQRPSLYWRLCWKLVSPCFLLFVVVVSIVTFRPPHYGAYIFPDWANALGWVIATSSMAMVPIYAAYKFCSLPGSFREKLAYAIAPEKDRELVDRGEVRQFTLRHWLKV
T7 sequence (P31645 whole entry): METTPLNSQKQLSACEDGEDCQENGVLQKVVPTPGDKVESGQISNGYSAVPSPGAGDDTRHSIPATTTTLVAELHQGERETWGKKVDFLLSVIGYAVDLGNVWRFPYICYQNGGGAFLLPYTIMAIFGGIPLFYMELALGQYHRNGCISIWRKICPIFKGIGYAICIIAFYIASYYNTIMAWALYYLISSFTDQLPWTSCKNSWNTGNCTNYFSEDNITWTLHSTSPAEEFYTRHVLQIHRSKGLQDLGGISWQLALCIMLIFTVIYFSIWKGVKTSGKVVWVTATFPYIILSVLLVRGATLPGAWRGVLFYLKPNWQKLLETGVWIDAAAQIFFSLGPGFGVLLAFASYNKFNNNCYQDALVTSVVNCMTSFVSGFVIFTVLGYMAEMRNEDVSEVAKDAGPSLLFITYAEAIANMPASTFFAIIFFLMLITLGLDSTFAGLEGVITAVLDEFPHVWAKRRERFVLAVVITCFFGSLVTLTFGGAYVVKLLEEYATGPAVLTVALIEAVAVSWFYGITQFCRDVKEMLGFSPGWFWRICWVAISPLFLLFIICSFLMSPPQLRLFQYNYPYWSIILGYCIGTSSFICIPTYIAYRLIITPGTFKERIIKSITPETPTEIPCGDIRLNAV
T3 sequence (P41595 whole entry): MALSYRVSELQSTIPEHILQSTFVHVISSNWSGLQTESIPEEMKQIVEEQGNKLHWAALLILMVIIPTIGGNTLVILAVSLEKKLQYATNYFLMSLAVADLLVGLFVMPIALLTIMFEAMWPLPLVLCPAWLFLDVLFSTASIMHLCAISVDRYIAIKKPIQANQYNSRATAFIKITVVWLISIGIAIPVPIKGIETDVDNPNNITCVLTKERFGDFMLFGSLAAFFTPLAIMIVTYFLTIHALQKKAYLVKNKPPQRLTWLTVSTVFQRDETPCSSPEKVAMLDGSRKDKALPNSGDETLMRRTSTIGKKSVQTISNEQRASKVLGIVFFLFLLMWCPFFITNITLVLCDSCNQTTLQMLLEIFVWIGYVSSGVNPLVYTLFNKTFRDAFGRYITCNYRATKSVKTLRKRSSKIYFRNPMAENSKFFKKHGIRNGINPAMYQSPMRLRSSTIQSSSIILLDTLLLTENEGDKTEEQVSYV

## CC(C(=O)c1ccc2c(c1)OCO2)N(C)Cc1ccccc1 (racemic) [A(III)]
5-HT1A receptor [1]
  Ki: 49 µM
5-HT2A receptor
  Ki: 53 µM
5-HT1A receptor [2]
  EC50: > 1000 µM
5-HT1A receptor [3]
  inhibition at 10 µM: 4%
5-HT2B receptor
  inhibition at 10 µM: 32%
5-HT2C receptor
  inhibition at 10 µM: 7%
5-HT7 receptor
  inhibition at 10 µM: 0%
alpha2A receptor
  inhibition at 10 µM: 42%
[4]
  inhibition at 10 µM: 5%
[5]
  inhibition at 10 µM: 74%
MT1 receptor
  inhibition at 10 µM: 77%
[6]
  inhibition at 10 µM: 38%
